Test systems include CAKI-1 renal; SK-OV-3 ovarian; EKVX NSCLC; SK-MEL-2 melanoma; PC-3 prostate; RPMI-8226 leukemia; SF-268 CNS; NCI-H23 lung; RXF 393 renal; NCI-H226 lung.
Holding throughout (assay): NCI tumour cell line growth inhibition, 48 h

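Protocol summary: plate cells (96-well), add compound at 5 concentrations, incubate 48 h, interpolate endpoints linearly. At the GI50, growth is halved. TGI: total growth inhibition.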

This is an account of results in PubChem BioAssay (NCI).

With `Cc1cc(C(=O)Nc2ncc(Cc3cccc(C(F)(F)F)c3)s2)c2ccccc2n1`, the GI50 in the test with CAKI-1 renal is 2.13 µM; in the test with SK-OV-3 ovarian, 4.24 µM; with EKVX NSCLC, 2.9 µM; in the test with SK-MEL-2 melanoma, 2.74 µM; in the test with PC-3 prostate, 2.31 µM; in the test with RPMI-8226 leukemia, 2.41 µM. The GI50 in the test with SF-268 CNS was 2.63 µM; in the test with NCI-H23 lung it was 3.9 µM. Besides, the TGI with CAKI-1 renal, in the test on SK-OV-3 ovarian, in the test with EKVX NSCLC, in the test with SK-MEL-2 melanoma, in the test on PC-3 prostate and in the test with RPMI-8226 leukemia was above 100 µM in each case. For the same compound, the TGI in the test on SF-268 CNS and in the test on NCI-H23 lung was above 100 µM each time.
In the case of `COC(C(O)CO)C(O)C(O)C(=O)NNc1ccccc1` (stereo not given), the TGI in the test with CAKI-1 renal, in the test on SK-OV-3 ovarian, in the test on EKVX NSCLC, in the test with SK-MEL-2 melanoma, in the test with PC-3 prostate and with RPMI-8226 leukemia was above 100 µM throughout. Besides, the TGI in the test on SF-268 CNS, in the test with NCI-H23 lung and with RXF 393 renal was above 100 µM in each case.
On to `COc1ccccc1/C=C1\SC(=S)N(/C=C2\C(=O)Oc3ccccc3C2=O)C1=O`, for which the TGI is 3.23 µM in the test on CAKI-1 renal; above 100 µM in the test with NCI-H226 lung; 76 µM in the test on SK-OV-3 ovarian; 60.2 µM in the test with EKVX NSCLC; 59.4 µM with SK-MEL-2 melanoma; above 100 µM in the test on PC-3 prostate. Also, the results for the TGI with SF-268 CNS and in the test with NCI-H23 lung were above 100 µM and 10.1 µM, respectively.
Consider `CN1c2ccc(Cl)cc2C(=O)NC1c1ccc([N+](=O)[O-])s1` (stereo not given), for which the TGI in the test with CAKI-1 renal turned out to be 40.7 µM; with SK-OV-3 ovarian, 67.2 µM; in the test on EKVX NSCLC, 57.8 µM; in the test on SK-MEL-2 melanoma it was 30.8 µM; in the test with PC-3 prostate, 36.1 µM; in the test on RPMI-8226 leukemia, 26.7 µM. For the same compound, the TGI with SF-268 CNS was determined as 21.5 µM; in the test with RXF 393 renal it was 24.6 µM.
Turning to `O=C1OC(C(O)CO)C(=O)C1=O` (stereo not given), the GI50 with CAKI-1 renal is 3220 µM; in the test with NCI-H226 lung, above 10000 µM; in the test with SK-OV-3 ovarian, 2910 µM; in the test with SK-MEL-2 melanoma, above 10000 µM; with PC-3 prostate it was 4410 µM; in the test on RPMI-8226 leukemia it was 2460 µM. Besides, the figures for the GI50 with SF-268 CNS, in the test on NCI-H23 lung and with RXF 393 renal were 2720 µM, 4680 µM and 1700 µM, respectively. The TGI in the test with CAKI-1 renal was 9630 µM; in the test on NCI-H226 lung, above 10000 µM; in the test on SK-OV-3 ovarian it was 7200 µM; in the test on SK-MEL-2 melanoma it was above 10000 µM; with PC-3 prostate it was above 10000 µM; with RPMI-8226 leukemia it was 8420 µM. The TGI in the test on SF-268 CNS was 6600 µM; in the test on NCI-H23 lung, above 10000 µM; in the test on RXF 393 renal it was 3210 µM.
`O=C(N/N=C/c1ccc(Cl)cc1)c1ccc(C(F)(F)F)nc1Nc1cccc(C(F)(F)F)c1`: the GI50 was 2.37 µM with CAKI-1 renal; 2.21 µM with NCI-H226 lung; 1.85 µM in the test on SK-OV-3 ovarian; 1.97 µM in the test on EKVX NSCLC; 2.58 µM in the test on SK-MEL-2 melanoma; 2.05 µM in the test with PC-3 prostate. Besides, the results for the GI50 in the test on RPMI-8226 leukemia, in the test on SF-268 CNS and with NCI-H23 lung were 1.53 µM, 1.14 µM and 2.31 µM, respectively. The TGI in the test with CAKI-1 renal amounted to 9.88 µM; in the test on NCI-H226 lung, 6.82 µM; with SK-OV-3 ovarian it was 7.54 µM; with EKVX NSCLC, 14.1 µM; in the test on SK-MEL-2 melanoma, 7.91 µM; in the test with PC-3 prostate, 8.03 µM. For the same compound, the TGI with SF-268 CNS came out at 8.29 µM; with NCI-H23 lung it was 8.74 µM.
`CC(C)n1nc(-c2cc3cc(O)ccc3[nH]2)c2c(N)ncnc21`: the GI50 in the test on CAKI-1 renal is 0.262 µM; in the test on NCI-H226 lung, 0.117 µM; with SK-OV-3 ovarian it was 0.14 µM; in the test on SK-MEL-2 melanoma it was 0.229 µM; with PC-3 prostate, 0.086 µM; in the test with RPMI-8226 leukemia it was 0.0705 µM. Besides, the GI50 in the test on SF-268 CNS is 0.224 µM; with NCI-H23 lung, 0.317 µM; with RXF 393 renal, 0.121 µM. Further, the TGI in the test with CAKI-1 renal stood at 1.77 µM; with NCI-H226 lung it was 1.31 µM; in the test on SK-OV-3 ovarian, 0.754 µM; in the test on SK-MEL-2 melanoma it was 1.95 µM; in the test with PC-3 prostate it was 6.45 µM; in the test on RPMI-8226 leukemia, 1.25 µM. The results for the TGI with SF-268 CNS, with NCI-H23 lung and in the test with RXF 393 renal were 4.78 µM, 9.19 µM and 0.661 µM, respectively.
`CCCCCCCC/C=C/CCCCCCCC(=O)OC[C@H]1O[C@@H](n2ccc(N)nc2=O)C(F)(F)[C@@H]1O`: the GI50 in the test on CAKI-1 renal is below 0.0135 µM; in the test with NCI-H226 lung, 0.333 µM; in the test with SK-OV-3 ovarian it was 0.272 µM; in the test with SK-MEL-2 melanoma it was 14.2 µM; in the test on PC-3 prostate, 0.752 µM; in the test on RPMI-8226 leukemia, 0.128 µM. Moreover, the GI50 with SF-268 CNS is below 0.0224 µM; in the test with NCI-H23 lung, below 0.0143 µM; in the test on RXF 393 renal it was 0.0675 µM. Moreover, the TGI in the test on CAKI-1 renal was 3.59 µM; with NCI-H226 lung, above 61.3 µM; with SK-OV-3 ovarian it was above 100 µM; in the test on SK-MEL-2 melanoma it was above 100 µM; with PC-3 prostate, above 100 µM; with RPMI-8226 leukemia, above 100 µM. Besides, the TGI in the test with SF-268 CNS is 19.7 µM; in the test with NCI-H23 lung it was 21.1 µM; with RXF 393 renal, above 49.2 µM.
In the case of `C=C1C(=O)O[C@H]2[C@H]1CC/C(COC(=O)C(=O)c1cn(Cc3ccccc3)c3ccccc13)=C\CC[C@@]1(C)O[C@@H]21`, the GI50 with CAKI-1 renal was 2.96 µM; in the test with SK-OV-3 ovarian, 18.9 µM; in the test with EKVX NSCLC, 2.06 µM; with SK-MEL-2 melanoma, 2.09 µM; in the test with PC-3 prostate it was 2.14 µM; in the test on RPMI-8226 leukemia, 2.09 µM. Further, the GI50 is 2.16 µM in the test on SF-268 CNS, 1.67 µM with NCI-H23 lung and 1.89 µM in the test with RXF 393 renal. Moreover, the TGI in the test on CAKI-1 renal turned out to be 34.5 µM; in the test with SK-OV-3 ovarian, 56.7 µM; with EKVX NSCLC it was 5.96 µM; in the test on SK-MEL-2 melanoma it was 4.71 µM; in the test with PC-3 prostate, 4.35 µM; in the test with RPMI-8226 leukemia, 8.04 µM. Besides, the TGI in the test with SF-268 CNS was determined as 6.3 µM; in the test with NCI-H23 lung it was 3.56 µM; in the test on RXF 393 renal, 3.43 µM.
Regarding `Cc1cc(S(=O)(=O)Nc2nnc(-c3ccccc3)c(-c3ccccc3)n2)c(SCC(N)=O)cc1Cl`, the GI50 with CAKI-1 renal is above 100 µM; in the test with NCI-H226 lung, 59.9 µM; in the test on SK-OV-3 ovarian, above 100 µM; with EKVX NSCLC, above 100 µM; in the test on SK-MEL-2 melanoma, 30.5 µM; in the test with PC-3 prostate it was 94.8 µM. Further, the GI50 in the test on RPMI-8226 leukemia is 30.9 µM; in the test with SF-268 CNS it was 37.6 µM; in the test on NCI-H23 lung, 78.7 µM. The TGI in the test with CAKI-1 renal was above 100 µM; in the test on NCI-H226 lung, above 100 µM; in the test on SK-OV-3 ovarian it was above 100 µM; in the test on EKVX NSCLC it was above 100 µM; in the test with SK-MEL-2 melanoma, 49.2 µM; in the test with PC-3 prostate, above 100 µM. Further, the TGI in the test on RPMI-8226 leukemia is 86.6 µM; in the test on SF-268 CNS it was above 100 µM; with NCI-H23 lung, above 100 µM.
For `CN1C(=O)c2cccc3cc([N+](=O)[O-])cc(c23)C1=O`, the TGI in the test with CAKI-1 renal, with SK-OV-3 ovarian, with PC-3 prostate, in the test on RPMI-8226 leukemia, in the test on SF-268 CNS and in the test on NCI-H23 lung was above 10 µM throughout.
For `CC(C)(C)c1cc(C(C)(C)C)cc(S(=O)(=O)Nc2cc3ccccc3cc2C(=O)NCCN)c1`, the GI50 was 2.75 µM in the test on CAKI-1 renal; 2.16 µM in the test on NCI-H226 lung; 2.04 µM in the test on SK-OV-3 ovarian; 1.45 µM in the test with EKVX NSCLC; 1.92 µM in the test on SK-MEL-2 melanoma; 2.4 µM in the test on PC-3 prostate. Moreover, the results for the GI50 in the test with SF-268 CNS, with NCI-H23 lung and in the test on RXF 393 renal were 1.68 µM, 1.76 µM and 1.79 µM, respectively. The TGI with CAKI-1 renal is 9.33 µM; in the test with NCI-H226 lung, 4.28 µM; in the test on SK-OV-3 ovarian it was 4.51 µM; in the test with EKVX NSCLC it was 2.88 µM; in the test with SK-MEL-2 melanoma, 3.87 µM; in the test with PC-3 prostate it was 6.23 µM. The TGI stood at 3.35 µM with SF-268 CNS, 3.53 µM in the test on NCI-H23 lung and 3.18 µM in the test with RXF 393 renal.
`CCCCC(O)(c1ccc(Cl)cc1)C(CN1CCOCC1)c1ccc(Cl)cc1` (stereo not given): the GI50 in the test on CAKI-1 renal was 14.6 µM; in the test with NCI-H226 lung, 11.8 µM; with SK-OV-3 ovarian it was 15.2 µM; in the test on PC-3 prostate, 7.68 µM; in the test on RPMI-8226 leukemia, 10.4 µM; in the test on SF-268 CNS, 12.6 µM. For the same compound, the GI50 in the test with NCI-H23 lung is 10.6 µM; in the test on RXF 393 renal it was 8.15 µM. Moreover, the TGI came to 32.6 µM in the test on CAKI-1 renal; 28.8 µM with NCI-H226 lung; 47.1 µM in the test with SK-OV-3 ovarian; 23.9 µM in the test with PC-3 prostate; 36.2 µM in the test with RPMI-8226 leukemia; 27.2 µM with SF-268 CNS. Moreover, the TGI with NCI-H23 lung was found to be 28.7 µM; in the test on RXF 393 renal it was 22.8 µM.
With `OC[C@H]1CCCC1O` (stereo not given in full), the TGI with CAKI-1 renal, in the test with NCI-H226 lung, in the test on SK-MEL-2 melanoma, in the test with PC-3 prostate, with RPMI-8226 leukemia and in the test on SF-268 CNS was above 100 µM each time. Moreover, the TGI with NCI-H23 lung and in the test on RXF 393 renal was above 100 µM each time.
Turning to `Cc1cccc(NC(=O)C(=O)C(C(=O)c2ccc3ccccc3c2)C2OC(=O)c3ccccc32)c1C` (stereo not given), the TGI in the test on CAKI-1 renal came to 39.3 µM; in the test with NCI-H226 lung, 8.74 µM; in the test with SK-OV-3 ovarian, 54.4 µM; with EKVX NSCLC, 77.8 µM; with SK-MEL-2 melanoma, 29.8 µM; in the test with RPMI-8226 leukemia, 43.2 µM. Further, the values for the TGI in the test on SF-268 CNS, with NCI-H23 lung and in the test with RXF 393 renal were 53.6 µM, 59.1 µM and 11.6 µM, respectively.
